Converted amounts (≈) assume the structure as drawn. The source made the active and inactive calls. The rule behind the calls is not given here.
Experiments:
E6SM = assay: Compound tested for cytotoxicity in human embryonic skin muscle E6SM cell cultures; format: functional
Adenosylhomocysteinase [1] = target: T1, Adenosylhomocysteinase (Homo sapiens, UniProt P23526); assay: Enzyme kinetic property: kinact value was determined
Target sequence in this assay (P23526 2-432 limits assumed): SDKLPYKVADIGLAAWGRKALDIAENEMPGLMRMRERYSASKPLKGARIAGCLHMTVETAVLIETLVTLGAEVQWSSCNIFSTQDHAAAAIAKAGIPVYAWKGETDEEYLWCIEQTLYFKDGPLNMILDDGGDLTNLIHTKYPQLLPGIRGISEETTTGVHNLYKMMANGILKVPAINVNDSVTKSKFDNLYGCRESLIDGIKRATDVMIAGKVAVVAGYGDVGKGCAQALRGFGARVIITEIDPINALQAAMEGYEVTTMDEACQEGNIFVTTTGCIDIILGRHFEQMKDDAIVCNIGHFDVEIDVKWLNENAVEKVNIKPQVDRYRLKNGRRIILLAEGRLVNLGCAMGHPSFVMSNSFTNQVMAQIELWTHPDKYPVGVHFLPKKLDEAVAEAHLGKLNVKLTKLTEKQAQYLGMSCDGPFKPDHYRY

Adenosylhomocysteinase [2] = target: T1, Adenosylhomocysteinase; assay: Binding affinity against S-Adenosyl-homocysteine hydrolase was determined
Target sequence in this assay (P23526 whole entry): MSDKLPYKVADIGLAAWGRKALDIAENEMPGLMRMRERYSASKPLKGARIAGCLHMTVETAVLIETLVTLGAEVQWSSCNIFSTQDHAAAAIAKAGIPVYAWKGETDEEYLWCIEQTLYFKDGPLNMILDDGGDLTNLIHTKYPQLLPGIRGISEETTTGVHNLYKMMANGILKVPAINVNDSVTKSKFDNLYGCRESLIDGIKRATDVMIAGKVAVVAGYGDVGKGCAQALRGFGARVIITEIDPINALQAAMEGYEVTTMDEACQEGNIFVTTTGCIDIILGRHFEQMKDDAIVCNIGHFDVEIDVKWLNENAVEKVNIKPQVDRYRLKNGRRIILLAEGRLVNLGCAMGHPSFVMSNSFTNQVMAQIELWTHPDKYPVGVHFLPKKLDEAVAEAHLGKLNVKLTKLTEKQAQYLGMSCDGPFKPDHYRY

Adenosylhomocysteinase [3] = target: T1, Adenosylhomocysteinase; assay: Change in the S-Adenosyl-homocysteine hydrolase enzyme's NAD+ content until complete inactivation was determined
Target sequence in this assay (P23526 2-432 limits assumed): as the sequence (P23526 2-432 limits assumed) above

Vero = assay: Compound tested for cytotoxicity in vero cell culture was determined; format: functional, Chlorocebus sabaeus
Coxsackievirus B4 = assay: Antiviral activity against Coxsackie B4 virus; No activity; format: functional, organism-based
Sindbis virus = assay: Antiviral activity against Sindbis; No activity; format: functional, organism-based
Punta Toro virus = assay: Antiviral activity against Punta Toro virus; No activity; format: functional, organism-based
HEL [4] = assay: Antiviral activity against Cytomegalovirus virus (CMV) strain Davis in HEL cells; No specific activity; format: functional, cell-based; details: Homo sapiens
Human respirovirus 3 = assay: Antiviral activity against Parainfluenza-3; No activity; format: functional, organism-based
Junin virus = assay: Activity against Junin virus was determined; format: functional; details: Mammarenavirus juninense
Tacaribe virus = assay: Activity against Taccaribe virus was determined; format: functional; details: Mammarenavirus tacaribeense
HEL [5] = assay: Antiviral activity against Cytomegalovirus virus (CMV) strain AD-169 in HEL cells; No specific activity; format: functional, cell-based; details: Homo sapiens

SMILES	MTC (E6SM)	K inact (Adenosylhomocysteinase [1])	Ki (Adenosylhomocysteinase [2])	NAD (Adenosylhomocysteinase [3])	MTC (Vero)	MIC (Coxsackievirus B4)	MIC (Sindbis virus)	MIC (Punta Toro virus)	MIC (HEL [4])	MIC (Human respirovirus 3)	MIC (Junin virus)	MIC (Tacaribe virus)	MIC (HEL [5])
N#CSC[C@H]1OC(n2cnc3c(N)ncnc32)[C@H](O)[C@@H]1O (stereo partly specified)	>650 µM	0.59 min⁻¹	67 µM	16%									
C#CSC[C@H]1OC(n2cnc3c(N)ncnc32)[C@H](O)[C@@H]1O (stereo partly specified)	30 µM	0.12 min⁻¹	10 µM	36%									
C=CSC[C@H]1OC(n2cnc3c(N)ncnc32)[C@H](O)[C@@H]1O (stereo partly specified)	>650 µM	0.07 min⁻¹	4 µM	18%	>650 µM	inactive	inactive	inactive	inactive	inactive	65 µM (≈ 20.1 µg/mL)	40 µM (≈ 12.4 µg/mL)	inactive
